Source: patent US4680397A, “Apovincaminol derivative” (Richter Gedeon Vegyeszeti Gyar Rt., priority 1984, dated 1987)
Where a name gives a salt, the structure may show the parent alone.

Key:
Type in all cases: biochemical
[1] = target: phosphodiesterase isolated from cattle heart; assay: phosphodiesterase inhibition, enzyme isolated from cattle heart; conditions: inhibitor concentration giving 50% decrease of enzyme activity, 20 minutes incubation, read-out: 150(μmoles) cattle heart
Method: (§1) The model experiments were performed by means of phosphodiesterase isolated from animal tissues (rat brain, cattle brain, cattle heart). […] From the test compounds a 1 mmole stock solution was prepared with aqueous hydrochloric acid solution and different amounts of the stock solution were added to the enzyme preparates corresponding to 5×10^-6, 1×10^-5 and 5×10^-5 mole/lit. of the test compound. A solution of papaverine used as reference compound is added to the enzyme preparate in an analogous manner.
(§2) The activity of the solutions of the test compound and papaverine was expressed in percents of the control (enzyme solution without any inhibitory substance, 100%).
(§3) The tests on an enzyme isolated from cattle brain and cattle heart, respectively were carried out in an analogous way.

[2] = target: phosphodiesterase isolated from rat brain; assay: phosphodiesterase inhibition, enzyme isolated from rat brain; conditions: inhibitor concentration giving 50% decrease of enzyme activity, 20 minutes incubation, read-out: 150(μmoles) rat brain
Method: as §1, §2, §3

[3] = target: phosphodiesterase isolated from cattle brain; assay: phosphodiesterase inhibition, enzyme isolated from cattle brain; conditions: inhibitor concentration giving 50% decrease of enzyme activity, 20 minutes incubation, read-out: 150(μmoles) cattle brain
Method: as §1, §2, §3

Row | IC50 [1] | IC50 [2] | IC50 [3] | SMILES
1 | 60 µM | 120 µM | 100 µM | CCC12C=C(COC(C)=O)n3c4c(c5ccccc53)CCN(CC(O)C1)C42 (stereo not drawn) [compound 1041, 18β-Hydroxy-apovincaminol acetate]
2 | – | 50 µM | – | CCC12C=CCN3CCc4c(n(c5cccc([N+](=O)[O-])c45)C(COC(C)=O)=C1)C32 (centres unmarked) [compound 886, 9-Nitro-17,18-dehydroapovincaminol acetate]
3 | 2 µM | 5 µM | 5 µM | CCC12C=C(COC(=O)c3cc(OC)c(OC)c(OC)c3)n3c4c(c5ccccc53)CCN(CC(O)C1)C42 (stereo not drawn) [compound 1079, 18β-Hydroxy-apovincaminol 3',4',5'-trimethoxybenzoate]
4 | 2 µM | 10 µM | 5 µM | CCC12C=CCN3CCc4c(n(c5cc([N+](=O)[O-])ccc45)C(COC(=O)c4cc(OC)c(OC)c(OC)c4)=C1)C32 (centres unmarked) [compound 889, 11-nitro-17,18-dehydro-apovincaminol 3',4',5'-tri-methoxybenzoate]
5 | 5 µM | 30 µM | 10 µM | CCC12C=CCN3CCc4c(n(c5cccc([N+](=O)[O-])c45)C(COC(=O)c4cc(OC)c(OC)c(OC)c4)=C1)C32 (centres unmarked) [compound 888, 9-Nitro-17,18-dehydroapovincaminol 3',4',5'-trimethoxybenzoate]
6 | – | 30 µM | – | CCC12C=CCN3CCc4c(n(c5cc([N+](=O)[O-])ccc45)C(COC(C)=O)=C1)C32 (centres unmarked) [compound 887, 11-nitro-17,18-dehydro-apovincaminol acetate]

Row | SMILES | IC50 [1] | IC50 [2] | IC50 [3]
7 | COc1ccc(Cc2nccc3cc(OC)c(OC)cc23)cc1OC [papaverin hydrochloride, reference compound] | 50 µM | 120 µM | 100 µM
8 | CCC12C=C(COC(C)=O)n3c4c(c5ccccc53)CCN(CC(OC(C)=O)C1)C42 (stereo not drawn) [compound 956, 18β-Acetoxy-apovincaminol acetate] | 25 µM | 30 µM | 30 µM
